Here are results for six compounds from ChEMBL document CHEMBL3856245, “New labdane diterpenoids from Croton laui and their anti-inflammatory activities” (Bioorg Med Chem Lett, 2016).

The structures appear in SMILES notation. pIC50: −log10 of the molar value.

Series [1] is described as follows: Antiinflammatory activity in mouse RAW264.7 cells assessed as inhibition of LPS-induced NO production after 24 hrs in presence of LPS by Griess reagent based assay. The format is functional, cell-based. To be noted: RAW264.7, 24 h. Background: The Griess reaction detects nitrite, a stable product of nitric oxide.
Series [2] can be described thus: Cytotoxicity against mouse RAW264.7 cells assessed as reduction in cell viability after 48 hrs by MTT assay. The class given is toxicity.
For another series, the system named is RAW264.7. Description: Selectivity index, ratio of CC50 for mouse RAW264.7 cells to antiinflammatory IC50 for mouse RAW264.7 cells. The class given is functional.

As usually defined, the pIC50 is −log10 of the IC50, conventionally taken in molar units. By CC50 is commonly meant the concentration that lowers cell viability or growth by half. Turning to `C/C(C=O)=C\C[C@H]1[C@](C)(O)[C@@H](O)C[C@H]2C(C)(C)CCC[C@@]21C`, the pIC50 in series [1] was 4.03. Also, the CC50 at 48 h in series [2] is over 100 µM. Moreover, the “Ratio CC50/IC50” value in the series with RAW264.7 was over 1.1.

As for `C=C/C(C)=C/C[C@H]1[C@](C)(O)[C@@H](O)C[C@H]2C(C)(C)CCC[C@@]21C`, the pIC50 in series [1] is 4.31. The CC50 at 48 h in series [2] was 94.5 µM. In the series on RAW264.7, the “Ratio CC50/IC50” value turned out to be 1.9.

With `COc1ccc2c(c1)c(CC(=O)O)c(C)n2C(=O)c1ccc(Cl)cc1` [INDOMETHACIN], the pIC50 in series [1] is 4.78. Besides, in series [2], the CC50 at 48 h was over 200 µM. Further, the “Ratio CC50/IC50” value in the series on RAW264.7 is reported as over 12.1.

As for `CC1=CC(=O)O[C@]12C[C@@H]1[C@@]3(C)CCCC(C)(C)[C@@H]3C[C@H](O)[C@@]1(C)O2`, the pIC50 in series [1] is 4.30. For the same compound, the CC50 at 48 h in series [2] is over 100 µM. In addition, in the series on RAW264.7, the “Ratio CC50/IC50” value was over 2.

Take `CC1=CC(=O)O[C@@]12C[C@@H]1[C@@]3(C)CCCC(C)(C)[C@@H]3C[C@H](O)[C@@]1(C)O2`: in series [1], the negative logarithm of the IC50 (pIC50) is 4.35. The CC50 at 48 h in series [2] is over 100 µM. The “Ratio CC50/IC50” value with RAW264.7 was over 2.2.

Turning to `C/C(=C\CO)[C@H]1C[C@@H]2[C@@]3(C)CCCC(C)(C)[C@@H]3C[C@H](O)[C@@]2(C)O1`, the pIC50 in series [1] is 4.37. Moreover, in series [2], the CC50 at 48 h is over 100 µM. Also, the “Ratio CC50/IC50” value in the series on RAW264.7 is given as over 2.3.
